Source: US10717733B2, “Haloallylamine indole and azaindole derivative inhibitors of lysyl oxidases and uses thereof” (PHARMAXIS LTD., priority 2016, dated 2020)
Where a name gives a salt, the structure may show the parent alone.

How the values were obtained:
Assay type in all cases: biochemical
Human LOXL2 = Human LOXL2 (Homo sapiens (Human), UniProt Q9Y4K0); test: LOXL2 inhibition, peroxidase-coupled Amplex Red amine oxidase assay; details: 30 min preincubation at 37° C., putrescine substrate
Outline: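 Enzyme in 1.2 M urea, 50 mM sodium borate pH 8.2 with 1 μM mofegiline and 0.5 mM pargyline, preincubated 30 min at 37° C with compound (11-point CRC). Putrescine at twice KM (10 mM for LOXL2) with Amplex Red/HRP; fluorescence (ex 565, em 590) read kinetically 30 min; IC50 from slopes.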

[1] = biological target: human recombinant SSAO/VAP-1 (Homo sapiens (Human), UniProt Q16853); test: Inhibition of human recombinant SSAO/VAP-1 amine oxidase activity; details: 30 min preincubation at 37° C., 600 μM benzylamine
Outline: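 Purified SSAO/VAP-1 (residues 34-763, expressed in CHO Lec 8 cells; 0.25 μg/mL) preincubated 30 min at 37° C with compound in 0.1 M sodium phosphate pH 7.4. Reaction mix of 600 μM benzylamine, 120 μM Amplex Red and 1.5 U/mL HRP added; fluorescence (ex 565/em 590 nm) read every 2.5 min for 30 min; IC50 from kinetic slopes over 4-11 point curves.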

Recombinant human MAO-B = Recombinant human MAO-B (Homo sapiens (Human), UniProt P27338); test: Inhibition of human recombinant MAO-B; details: benzylamine 100 μM
Outline: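 Recombinant human MAO-B used as enzyme source (0.06 mg/mL, stated concentration). Run as for the human SSAO/VAP-1 assay, except benzylamine substrate at 100 μM.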

Chain of Human LOXL2 (Q9Y4K0 26-774): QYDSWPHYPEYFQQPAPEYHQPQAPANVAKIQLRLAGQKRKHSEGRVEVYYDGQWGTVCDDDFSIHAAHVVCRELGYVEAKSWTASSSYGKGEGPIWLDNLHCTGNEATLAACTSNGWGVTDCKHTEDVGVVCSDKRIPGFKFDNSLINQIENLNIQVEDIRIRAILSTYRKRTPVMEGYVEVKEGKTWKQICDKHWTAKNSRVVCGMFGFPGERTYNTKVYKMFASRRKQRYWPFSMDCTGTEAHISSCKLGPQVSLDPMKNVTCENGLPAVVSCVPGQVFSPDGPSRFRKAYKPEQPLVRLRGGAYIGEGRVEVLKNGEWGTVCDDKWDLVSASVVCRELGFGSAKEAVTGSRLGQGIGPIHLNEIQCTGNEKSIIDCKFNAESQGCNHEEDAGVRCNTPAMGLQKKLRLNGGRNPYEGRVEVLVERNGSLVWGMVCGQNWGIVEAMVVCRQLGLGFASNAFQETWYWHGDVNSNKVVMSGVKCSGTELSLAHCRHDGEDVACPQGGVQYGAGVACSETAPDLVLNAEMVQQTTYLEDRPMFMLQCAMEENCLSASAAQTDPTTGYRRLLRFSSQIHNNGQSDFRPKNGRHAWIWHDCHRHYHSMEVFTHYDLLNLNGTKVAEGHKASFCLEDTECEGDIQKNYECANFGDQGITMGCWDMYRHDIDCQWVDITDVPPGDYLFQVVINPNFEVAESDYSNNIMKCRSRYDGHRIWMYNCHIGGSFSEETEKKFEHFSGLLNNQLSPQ
Chain of human recombinant SSAO/VAP-1 (Q16853 34-763): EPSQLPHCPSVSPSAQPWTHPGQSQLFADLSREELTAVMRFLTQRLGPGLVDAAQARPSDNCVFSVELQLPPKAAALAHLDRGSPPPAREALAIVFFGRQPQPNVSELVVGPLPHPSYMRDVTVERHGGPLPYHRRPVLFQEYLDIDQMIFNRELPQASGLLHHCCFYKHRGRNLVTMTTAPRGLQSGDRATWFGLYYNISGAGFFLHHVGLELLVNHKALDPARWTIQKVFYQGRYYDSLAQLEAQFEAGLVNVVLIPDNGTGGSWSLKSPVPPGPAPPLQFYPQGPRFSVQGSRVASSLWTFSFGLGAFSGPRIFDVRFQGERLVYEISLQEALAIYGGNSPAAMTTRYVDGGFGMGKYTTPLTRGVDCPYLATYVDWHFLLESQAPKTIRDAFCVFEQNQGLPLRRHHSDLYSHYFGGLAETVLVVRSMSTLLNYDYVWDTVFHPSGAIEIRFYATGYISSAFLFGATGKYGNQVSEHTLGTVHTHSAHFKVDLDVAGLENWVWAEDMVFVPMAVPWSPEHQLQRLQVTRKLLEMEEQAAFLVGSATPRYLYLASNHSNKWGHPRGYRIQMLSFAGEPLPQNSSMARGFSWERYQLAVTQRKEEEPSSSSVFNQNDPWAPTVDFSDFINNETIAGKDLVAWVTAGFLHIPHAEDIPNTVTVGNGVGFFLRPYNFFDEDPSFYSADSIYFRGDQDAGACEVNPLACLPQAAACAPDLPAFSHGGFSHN
Chain of Recombinant human MAO-B (P27338 whole entry): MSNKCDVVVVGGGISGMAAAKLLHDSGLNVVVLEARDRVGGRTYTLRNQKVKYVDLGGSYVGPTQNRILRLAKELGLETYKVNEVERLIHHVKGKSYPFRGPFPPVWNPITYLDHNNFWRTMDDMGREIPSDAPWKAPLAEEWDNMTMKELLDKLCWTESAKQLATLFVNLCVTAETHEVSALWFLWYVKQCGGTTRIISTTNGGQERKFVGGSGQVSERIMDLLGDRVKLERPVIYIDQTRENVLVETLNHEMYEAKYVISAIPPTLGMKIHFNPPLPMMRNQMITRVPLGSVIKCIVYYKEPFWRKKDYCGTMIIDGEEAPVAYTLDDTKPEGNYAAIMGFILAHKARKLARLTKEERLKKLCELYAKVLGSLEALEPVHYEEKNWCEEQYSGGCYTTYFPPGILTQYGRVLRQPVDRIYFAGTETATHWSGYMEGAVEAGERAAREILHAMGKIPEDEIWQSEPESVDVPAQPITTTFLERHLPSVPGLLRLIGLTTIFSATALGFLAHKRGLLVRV

Structure (SMILES): CCOC(=O)c1ccc2c(c1)c(-c1cccc(S(=O)(=O)N(C)C)c1)c(C)n2C/C(F)=C/CN [Compound 12, (Z)-ethyl 1-(4-amino-2-fluorobut-2-en-1-yl)-3-(3-(N,N-dimethylsulfamoyl)phenyl)-2-methyl-1H-indole-5-carboxylate]
- IC50 (Human LOXL2): < 0.3 µM
- IC50 [1]: > 3 µM
- IC50 (Recombinant human MAO-B): > 3 µM

Structure (SMILES): Cc1c(-c2cccc(S(=O)(=O)N(C)C)c2)c2ncccc2n1C/C(F)=C/CN [Compound 25, (Z)-3-(1-(4-amino-2-fluorobut-2-en-1-yl)-2-methyl-1H-pyrrolo[3,2-b]pyridin-3-yl)-N,N-dimethylbenzenesulfonamide Dihydrochloride]
- IC50 (Human LOXL2): < 0.3 µM
- IC50 [1]: > 3 µM
- IC50 (Recombinant human MAO-B): > 3 µM

Structure (SMILES): Cc1ccc2c(n1)c(-c1cccc(S(C)(=O)=O)c1)c(C)n2C/C(F)=C/CN [Compound 112, (Z)-4-(2,5-dimethyl-3-(3-(methylsulfonyl)phenyl)-1H-pyrrolo[3,2-b]pyridin-1-yl)-3-fluorobut-2-en-1-amine Dihydrochloride]
- IC50 (Human LOXL2): < 0.3 µM
- IC50 [1]: > 3 µM
- IC50 (Recombinant human MAO-B): > 3 µM
